Experimental data from the supplement of paper PMC10307832.

Legend:
Assay in all cases: relative viability (nuclei count vs DMSO), 5 days (fraction); higher = more cells survive
Everolimus + Olaparib = compound: CO[C@H]1C[C@@H]2CC[C@@H](C)[C@@](O)(O2)C(=O)C(=O)N2CCCC[C@H]2C(=O)O[C@H]([C@H](C)C[C@@H]2CC[C@@H](OCCO)[C@H](OC)C2)CC(=O)[C@H](C)/C=C(\C)[C@@H](O)[C@@H](OC)C(=O)[C@H](C)C[C@H](C)/C=C/C=C/C=C/1C [Everolimus] + O=C(c1cc(Cc2n[nH]c(=O)c3ccccc23)ccc1F)N1CCN(C(=O)C2CC2)CC1 [Olaparib] (partner 8 µM)
Outline: (§1)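 One day after seeding in 1536-well plates, lung cancer cell lines were dosed by pin tool. Dosing was either single-drug or a fixed anchor-drug dose plus five library-drug doses (not always all listed) in √10 steps. After 5 days, nuclei were stained in one fix-and-stain step and counted on 4× images, and relative viability is the nuclei count of treated wells over that of vehicle wells, given as the median of duplicate plates.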

Everolimus + Phenformin = compound: CO[C@H]1C[C@@H]2CC[C@@H](C)[C@@](O)(O2)C(=O)C(=O)N2CCCC[C@H]2C(=O)O[C@H]([C@H](C)C[C@@H]2CC[C@@H](OCCO)[C@H](OC)C2)CC(=O)[C@H](C)/C=C(\C)[C@@H](O)[C@@H](OC)C(=O)[C@H](C)C[C@H](C)/C=C/C=C/C=C/1C [Everolimus] + N=C(N)NC(=N)NCCc1ccccc1 [Phenformin] (partner 250 µM)
Outline: as §1

Everolimus + Trametinib = compound: CO[C@H]1C[C@@H]2CC[C@@H](C)[C@@](O)(O2)C(=O)C(=O)N2CCCC[C@H]2C(=O)O[C@H]([C@H](C)C[C@@H]2CC[C@@H](OCCO)[C@H](OC)C2)CC(=O)[C@H](C)/C=C(\C)[C@@H](O)[C@@H](OC)C(=O)[C@H](C)C[C@H](C)/C=C/C=C/C=C/1C [Everolimus] + CC(=O)Nc1cccc(-n2c(=O)n(C3CC3)c(=O)c3c(Nc4ccc(I)cc4F)n(C)c(=O)c(C)c32)c1 [Trametinib] (partner 0.02 µM)
Outline: as §1

Everolimus = compound: CO[C@H]1C[C@@H]2CC[C@@H](C)[C@@](O)(O2)C(=O)C(=O)N2CCCC[C@H]2C(=O)O[C@H]([C@H](C)C[C@@H]2CC[C@@H](OCCO)[C@H](OC)C2)CC(=O)[C@H](C)/C=C(\C)[C@@H](O)[C@@H](OC)C(=O)[C@H](C)C[C@H](C)/C=C/C=C/C=C/1C [Everolimus]
Outline: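 Lung cancer cell lines in 1536-well plates were exposed by pinning to five library-drug doses (not always all listed) √10 apart, following an overnight hold at 37 °C. MetaXpress counted Hoechst-stained nuclei from 4× images taken after 5 days without medium change. Viability is the median ratio of treated-well to vehicle-well nuclei across plates. Plates required control CV below 25% and at least one doubling.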

Row | Cell Line | relative viability (Everolimus + Olaparib; first compound 0.01 µM) | relative viability (Everolimus + Olaparib; first compound 0.03162 µM) | relative viability (Everolimus + Olaparib; first compound 0.1 µM) | relative viability (Everolimus + Olaparib; first compound 0.3162 µM) | relative viability (Everolimus + Olaparib; first compound 1 µM) | relative viability (Everolimus + Phenformin; first compound 0.01 µM) | relative viability (Everolimus + Phenformin; first compound 0.03162 µM) | relative viability (Everolimus + Phenformin; first compound 0.1 µM) | relative viability (Everolimus + Phenformin; first compound 0.3162 µM) | relative viability (Everolimus + Phenformin; first compound 1 µM) | relative viability (Everolimus + Trametinib; first compound 0.01 µM) | relative viability (Everolimus + Trametinib; first compound 0.03162 µM) | relative viability (Everolimus + Trametinib; first compound 0.1 µM) | relative viability (Everolimus + Trametinib; first compound 0.3162 µM) | relative viability (Everolimus + Trametinib; first compound 1 µM) | relative viability (Everolimus; 0.01 µM) | relative viability (Everolimus; 0.03162 µM) | relative viability (Everolimus; 0.1 µM) | relative viability (Everolimus; 0.3162 µM) | relative viability (Everolimus; 1 µM)
1 | RERF-LC-KJ | 0.666 | 0.61 | 0.593 | 0.605 | 0.606 | 0.377 | 0.426 | 0.377 | 0.381 | 0.376 | 0.654 | 0.613 | 0.495 | 0.494 | 0.524 | 0.788 | 0.695 | 0.584 | 0.659 | 0.558
2 | NCI-H358 | 0.424 | 0.384 | 0.303 | 0.325 | 0.389 | 0.208 | 0.25 | 0.227 | 0.234 | 0.298 | 0.105 | 0.102 | 0.114 | 0.129 | 0.109 | 0.483 | 0.487 | 0.514 | 0.479 | 0.525
3 | LC-2-ad | 0.861 | 0.972 | 0.817 | 0.84 | 0.864 | 0.54 | 0.502 | 0.54 | 0.516 | 0.491 | 0.961 | 0.957 | 0.948 | 0.964 | 0.891 | 0.932 | 1.03 | 0.89 | 0.958 | 0.9
4 | HCC-15 | 0.723 | 0.796 | 0.642 | 0.656 | 0.647 | 0.465 | 0.474 | 0.459 | 0.497 | 0.471 | 0.35 | 0.344 | 0.334 | 0.282 | 0.32 | 0.964 | 0.994 | 0.922 | 0.98 | 0.958
5 | NCI-H2405 | 0.757 | 0.745 | 0.681 | 0.713 | 0.686 | 0.364 | 0.353 | 0.33 | 0.335 | 0.382 | 0.419 | 0.362 | 0.385 | 0.426 | 0.431 | 0.791 | 0.774 | 0.731 | 0.767 | 0.74
6 | LXF-289 | 1.03 | 1.04 | 0.885 | 1.03 | 1 | 0.526 | 0.541 | 0.507 | 0.574 | 0.512 | 0.625 | 0.537 | 0.574 | 0.508 | 0.528 | 1.09 | 1.07 | 1 | 1.03 | 1.05
7 | CAL-12T | 0.527 | 0.486 | 0.483 | 0.473 | 0.379 | 0.472 | 0.549 | 0.356 | 0.503 | 0.482 | 0.193 | 0.187 | 0.172 | 0.191 | 0.191 | 0.643 | 0.7 | 0.476 | 0.542 | 0.604
8 | COR-L23 | 0.321 | 0.346 | 0.334 | 0.282 | 0.352 | 0.368 | 0.413 | 0.395 | 0.421 | 0.424 | 0.37 | 0.337 | 0.316 | 0.375 | 0.294 | 0.858 | 0.942 | 0.869 | 0.88 | 0.684
9 | NCI-H1755 | 0.764 | 0.592 | 0.697 | 0.556 | 0.588 | 0.583 | 0.639 | 0.476 | 0.547 | 0.487 | 0.666 | 0.579 | 0.553 | 0.545 | 0.453 | 0.919 | 0.865 | 0.749 | 0.819 | 0.816
10 | NCI-H1437 | 0.632 | 0.622 | 0.588 | 0.596 | 0.598 | 0.557 | 0.282 | 0.293 | 0.299 | 0.29 | 0.383 | 0.348 | 0.374 | 0.313 | 0.249 | 0.875 | 0.795 | 0.767 | 0.738 | 0.621
11 | NCI-H2085 | 0.704 | 0.75 | 0.698 | 0.705 | 0.583 | 0.573 | 0.559 | 0.395 | 0.503 | 0.521 | 0.313 | 0.329 | 0.299 | 0.264 | 0.297 | 0.848 | 0.865 | 0.692 | 0.735 | 0.689
12 | H3255 | 0.489 | 0.513 | 0.444 | 0.454 | 0.355 | 0.332 | 0.271 | 0.354 | 0.363 | 0.288 | 0.414 | 0.391 | 0.351 | 0.433 | 0.403 | 0.735 | 0.664 | 0.543 | 0.528 | 0.495
13 | NCI-H650 | 0.397 | 0.37 | 0.373 | 0.284 | 0.307 | 0.423 | – | 0.431 | 0.364 | 0.294 | 1 | 0.687 | 0.664 | 0.593 | 0.497 | 0.7 | – | 0.783 | 0.566 | 0.583
14 | LCLC-103H | 0.709 | 0.762 | 0.669 | 0.685 | 0.761 | 0.309 | 0.274 | 0.294 | 0.309 | 0.331 | 0.605 | 0.659 | 0.661 | 0.601 | 0.591 | 0.977 | 0.969 | 0.834 | 0.922 | 0.871
15 | LOU-NH91 | 0.744 | 0.829 | 0.789 | 0.788 | 0.777 | 0.636 | 0.596 | 0.609 | 0.541 | 0.584 | 0.626 | 0.695 | 0.667 | 0.612 | 0.623 | 0.823 | 0.799 | 0.798 | 0.789 | 0.773
